The source of these data is patent US7655651B2, “Amide derivatives of 3-phenyl-dihydropyrimido[4,5-d]pyrimidinones, their manufacture and use as pharmaceutical agents” (Hoffmann-La Roche Inc., priority 2004, dated 2010).

pIC50: −log10 of the molar value.

T1 sequence (P12931 whole entry): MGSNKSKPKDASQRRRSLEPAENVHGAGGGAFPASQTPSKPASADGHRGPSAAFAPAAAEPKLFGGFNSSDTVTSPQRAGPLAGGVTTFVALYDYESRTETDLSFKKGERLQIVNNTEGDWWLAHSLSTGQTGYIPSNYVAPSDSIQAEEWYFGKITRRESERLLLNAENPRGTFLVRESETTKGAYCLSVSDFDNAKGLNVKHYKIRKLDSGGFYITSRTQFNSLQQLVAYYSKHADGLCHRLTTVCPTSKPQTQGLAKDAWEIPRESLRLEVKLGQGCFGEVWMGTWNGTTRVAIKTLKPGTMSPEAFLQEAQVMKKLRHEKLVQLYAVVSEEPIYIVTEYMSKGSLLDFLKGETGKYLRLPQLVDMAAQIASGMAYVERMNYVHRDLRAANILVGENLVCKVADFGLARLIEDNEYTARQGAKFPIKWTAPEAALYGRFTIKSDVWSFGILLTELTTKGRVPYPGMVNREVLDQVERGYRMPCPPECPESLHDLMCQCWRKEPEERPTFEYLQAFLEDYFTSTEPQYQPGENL

The experiment addresses T1, Src (p60^c-src, partially purified) (Homo sapiens, UniProt P12931).
T1 construct: purchased UBI, Upstate Biotech, Inc
The experiment is described as follows: SRC-Inhibitor-Assay (time-resolved fluorescence kinase assay). The format is biochemical. The settings on record: ATP 5 μM; peptide 10 μM; enzyme 2.5 U/ml; enzyme pre-incubated with inhibitor 15 min at 15° C. On the procedure:
The activity of the compounds according to this invention as inhibitors for the src-family tyrosine kinases was shown by using the following assay.
SRC-Inhibitor-Assay Parameters:
• whereby both peptides were synthesized by an optimized solid phase peptide synthesis protocol (Merrifield, Fed. Proc. Fed. Amer. Soc. Exp. Biol. 21 (1962) 412) on a Zinsser SMP350 peptide synthesizer. Shortly, the peptide was assembled on […] (22.8 μmol scale) of a Rink-Linker modified polystyrene solid phase by repeatedly conjugating an twenty fold excess of amino acids each protected by temporary piperidine labile Fmoc- and permanent acid labile tert-Bu-, BOC— and O-tert-Bu-groups depending on the side chain function. The substrate sequence AEEEIYGEFEAKKKK was N-terminal additionally mounted with the spacer amino acids Aminocaprylic acid and Glycin. After cleavage of the N-terminal temporary protecting group the still attached and protected peptide was labeled with a 1.5 fold amount of LightCycler-Red 640-N-hydroxy succinimide ester (purchased from Roche Diagnostics GmbH) and triethylamine. After 3 hrs. the resin washed with Dimethylformamide and Isopropanol until the eluates of the blue resin got colourless. […] The substrate was finally isolated by a preparative reverse phase HPLC purification. The purification yielded 12.2 mg RP-HPLC single peak pure blue material (lyophilisate). The identity was proven by MALDI mass spectroscopy [2720.0]. • Enzymes: Upstate Src (p60^c-src, partially purified) were purchased from UBI, Upstate Biotech, Inc.
Time-resolved Fluorescence Assay: Reader: Perkin Elmer, Wallac Viktor 1420-040 multilabel counter; Liquid handling system: Beckman Coulter, Biomek 2000.
ATP, Tween™ 20, 4-(2-hydroxyethyl)-1-piperazineethanesulfonic acid (HEPES) were purchased from Roche Molecular Biochemicals, MgCl2 and MnCl2 were purchased from Merck Eurolab, Tris(2-carboxyethyl)phosphine hydrochloride (TCEP) was purchased from Pierce, 384 Well low volume fluorescence plates was purchased from Falcon.
At first the enzyme is pre-incubated for 15 min. at 15° C. in aqueous solution with corresponding amounts of inhibitors according to this invention. Then the phosphorylation reaction is started by adding a reaction mixture, containing ATP, Peptide and PT66, and subsequent shaking. The proceeding of this reaction is immediately monitored using time resolved fluorescence spectroscopy in a suitable well plate reader.
The IC50-values can be obtained from the reaction rates by using a non-linear curve fit (XLfit software (ID Business Solution Ltd., Guilford, Surrey, UK))
Regarding `CCN(CC)CCOc1ccc(Nc2ncc3c(n2)N(C)C(=O)N(c2cc(NC(=O)c4ccc(-c5ccccc5)cc4)ccc2Cl)C3)cc1` [Example 1, Biphenyl-4-carboxylic acid (4-chloro-3-{7-[4-(2-diethylamino-ethoxy)-phenylamino]-1-methyl-2-oxo-1,4-dihydro-2H-pyrimido[4,5-d]pyrimidin-3-yl}-phenyl)-amide], the pIC50 is 7.82 to 9.00.

`CCN(CC)CCOc1ccc(Nc2ncc3c(n2)N(C)C(=O)N(c2cc(NC(=O)C4CCCCCC4)ccc2Cl)C3)cc1` [Example 2-2, Cycloheptanecarboxylic acid (4-chloro-3-{7-[4-(2-diethylamino-ethoxy)-phenylamino]-1-methyl-2-oxo-1,4-dihydro-2H-pyrimido[4,5-d]pyrimidin-3-yl}-phenyl)-amide; compound with acetic acid] gave a negative logarithm of the IC50 (pIC50) of 7.30 to 7.82.

Turning to `CCN(CC)CCOc1ccc(Nc2ncc3c(n2)N(C)C(=O)N(c2cc(NC(=O)c4ccccc4)ccc2Cl)C3)cc1` [Example 2-6, N-(4-Chloro-3-{7-[4-(2-diethylamino-ethoxy)-phenylamino]-1-methyl-2-oxo-1,4-dihydro-2H-pyrimido[4,5-d]pyrimidin-3-yl}-phenyl)-benzamide], the negative logarithm of the IC50 (pIC50) was 8.62.

For `CCN(CC)CCOc1ccc(Nc2ncc3c(n2)N(C)C(=O)N(c2cc(NC(=O)c4ccc(OC)cc4)ccc2Cl)C3)cc1` [Example 2-7, N-(4-Chloro-3-{7-[4-(2-diethylamino-ethoxy)-phenylamino]-1-methyl-2-oxo-1,4-dihydro-2H-pyrimido[4,5-d]pyrimidin-3-yl}-phenyl)-4-methoxy-benzamide], the negative-log IC50 (pIC50) was 7.82 to 9.00.

Turning to `CCN(CC)CCOc1ccc(Nc2ncc3c(n2)N(C)C(=O)N(c2cc(NC(=O)c4ccc(C#N)cc4)ccc2Cl)C3)cc1` [Example 2-8, N-(4-Chloro-3-{7-[4-(2-diethylamino-ethoxy)-phenylamino]-1-methyl-2-oxo-1,4-dihydro-2H-pyrimido[4,5-d]pyrimidin-3-yl}-phenyl)-4-cyano-benzamide], the pIC50 is 9.00.

`CCN(CC)CCOc1ccc(Nc2ncc3c(n2)N(C)C(=O)N(c2cc(NC(=O)CCc4ccc(O)cc4)ccc2Cl)C3)cc1` [Example 2-12, N-(4-Chloro-3-{7-[4-(2-diethylamino-ethoxy)-phenylamino]-1-methyl-2-oxo-1,4-dihydro-2H-pyrimido[4,5-d]pyrimidin-3-yl}-phenyl)-3-(4-hydroxy-phenyl)-propionamide; compound with acetic acid] had a pIC50 of 7.82 to 9.00.

`CCN(CC)CCOc1ccc(Nc2ncc3c(n2)N(C)C(=O)N(c2cc(NC(=O)CCCc4ccccc4)ccc2Cl)C3)cc1` [Example 2-15, N-(4-Chloro-3-{7-[4-(2-diethylamino-ethoxy)-phenylamino]-1-methyl-2-oxo-1,4-dihydro-2H-pyrimido[4,5-d]pyrimidin-3-yl}-phenyl)-4-phenyl-butyramide] showed a negative logarithm of the IC50 (pIC50) of 7.30 to 7.82.

Consider `CCN(CC)CCOc1ccc(Nc2ncc3c(n2)N(C)C(=O)N(c2cc(NC(=O)C=Cc4ccccc4)ccc2Cl)C3)cc1` [Example 2-16, N-(4-Chloro-3-{7-[4-(2-diethylamino-ethoxy)-phenylamino]-1-methyl-2-oxo-1,4-dihydro-2H-pyrimido[4,5-d]pyrimidin-3-yl}-phenyl)-3-phenyl-acrylamide], for which the negative logarithm of the IC50 (pIC50) is 7.82 to 9.00.

On to `CCN(CC)CCOc1ccc(Nc2ncc3c(n2)N(C)C(=O)N(c2cc(NC(=O)Cc4cccnc4)ccc2Cl)C3)cc1` [Example 2-21, N-(4-Chloro-3-{7-[4-(2-diethylamino-ethoxy)-phenylamino]-1-methyl-2-oxo-1,4-dihydro-2H-pyrimido[4,5-d]pyrimidin-3-yl}-phenyl)-2-pyridin-3-yl-acetamide], for which the pIC50 is 7.30 to 7.82.

For the compound `CCN(CC)CCOc1ccc(Nc2ncc3c(n2)N(C)C(=O)N(c2cc(NC(=O)CCc4cccnc4)ccc2Cl)C3)cc1` [Example 2-23, N-(4-Chloro-3-{7-[4-(2-diethylamino-ethoxy)-phenylamino]-1-methyl-2-oxo-1,4-dihydro-2H-pyrimido[4,5-d]pyrimidin-3-yl}-phenyl)-3-pyridin-3-yl-propionamide; compound with acetic acid], the negative-log IC50 (pIC50) was 7.82 to 9.00.
